Data set [1] can be described thus: Blood βHB levels after single oral administration of ketogenic compounds in human subjects. As to the method:
Table 1 is data depicting blood BHB levels of 4 male subjects with an average weight of 76 kg in a fasted state that received 5.5 grams of buffered (D) βHB together with 4.5 grams of (D)-1,3BD, 328 mg of Na+ in the form of NaHCO3 and 500 mg of K+ in the form of KHCO3, at 15, 30, 45 and 60 minutes after oral administration. […] That compound is an ester formed by reacting (D)-3-hydroxybutyrate and (D)-1,3-butanediol.
Table 2 is data depicting blood βHB levels after a single administration of 5.5 grams of buffered (D) βHB together with 4.5 grams of (D)-1,3BD, 328 mg of Na+ in the form of NaHCO3 and 500 mg of K+ in the form of KHCO3 in a fasted 70 kg subject who was following a strict ketogenic diet and keto adapted due at 15, 30, 45 and 60 minutes after oral administration.
Table 3 is data depicting blood BHB after a single administration of 10 grams of buffered (D) βHB acid with 328 mg of Na+ in the form of NaHCO3 and 500 mg of K+ in the form of KHCO3 in a fasted 75 kg subject and two fasted 65 kg female subjects at 15, 30, 45, 60 and 90 minutes after administration.
FIG. […] The total dose of 60 grams was administered 3 hours after a meal. […] Those esters are typically administered after an overnight fast on an empty stomach. […] FIG. 5 also includes blood samples for 2 esters of (D)-BHB. The first was from HVMN and consisted of […] of ester (2 commercially available 30 gram bottles). The second was the ester KE4 from KetoneAid and contained 60 net grams (2 commercially available 30 gram bottles). The choice of 60 grams of active ester was based on dosing protocols for elite athletes in the paper “Nutritional Ketosis Alters Fuel Preference and Thereby Endurance in Elite Athletes” Cell Metabolism Cox et al. 2016.

The conditions of data set [2]: human, in vivo; cited from earlier work.

Structures are written as SMILES.

As for `C[C@@H](O)CC(=O)O` [10 g HB, (D)-beta-hydroxybutyrate], the “effectiveness at raising blood levels of (D)-βHB, pure (D) form versus racemic” value in data set [1] (human, in vivo) is on record as “more than twice as effective”.
Turning to `CC(O)CCO` (stereo not shown) [(D)-1,3BD, (D)-1,3-butanediol], in data set [1] (10 grams, 75 kg person), the “serum level of (D)-beta-hydroxybutyrate reached” value came to 0.9 mmol. The “effectiveness at raising serum levels of (D)-beta-hydroxybutyrate” value in data set [1] ((D) enantiomer compared with the racemic form) was about 3 times. In addition, the “mean blood BHB level” value turned out to be 0.0 in data set [1] (Table 4: 10 grams single administration, 72 kg fasted subject, T + 0); 0.6 in data set [1] (Table 4: 10 grams, 72 kg fasted male, +15 Min); 0.9 in data set [1] (Table 4: 10 grams, 72 kg fasted male, +30 Min); 0.9 in data set [1] (Table 4: 10 grams, 72 kg fasted male, +45 Min); 0.5 in data set [1] (Table 4: 10 grams, 72 kg fasted male, +60 Min); 0.3 in data set [1] (Table 4: 10 grams, 72 kg fasted male, +90 Min). The “effectiveness at raising blood levels of (D)-βHB, pure (D) form versus racemic” value in data set [1] (for any given weight) was “more than twice as effective”. In addition, the “ketogenic power compared with the free acid (D)-βHB” value in data set [1] (gram to gram basis) is “the liver. On a gram to gram basis, it is a more powerful”. Also, the “ketogenic power relative to the ketone ester” value in data set [1] (gram to gram basis) is reported as ~90% as powerful as the previously mentioned ketone ester.
For `C[C@@H](O)CCOC(=O)C[C@@H](C)O` [(D)-3-hydroxybutyl-(D)-3-hydroxybutyrate], the “average serum increase for βHB” value in data set [2] is given as 1.0 mmol/10 grams.

Source of the values: patent US20250120425A1, “Combinations of Ketogenic Supplements for Rapid and Sustained Blood Ketone Levels in Dieters and Patients” (priority 2021, published 2025).
